Among the data in patent publication US7160901B2, “Substituted indolinones, preparation thereof and their use as pharmaceutical compositions” (Boehringer Ingelheim Pharma GmbH & Co. KG, priority 2000, dated 2007) are IC50 and melting point values, retold here.

A value given as a limit tells only on which side of the number the result lay.

One data set deals with Leiomyosarcoma tumour cell line SK-UT-1B. The data set is described as follows: Test 1: inhibition of the proliferation of cultivated human tumour cells (14C-thymidine incorporation), SK-UT-1B. Format: cell-based. The note with it: Homo sapiens, Skut1B; in vitro Test 1; SK-UT-1B cells; 48 hours' incubation, then 14C-thymidine for a further 24 hours; IC50 of inhibition of incorporated 14C-thymidine; read-out: Inhibition of SKUT-1B proliferation. The source says: Inhibition of the Proliferation of Cultivated Human Tumour Cells
Cells of the Leiomyosarcoma tumour cell line SK-UT-1B or non-small-cell lung tumour cell line NCI-H460 (obtained from the American Type Culture Collection (ATCC)) were cultivated in Minimum Essential Medium with non-essential amino acids (Gibco), supplemented with sodium pyruvate (1 mMol), glutamine (2 mMol) and 10% foetal calf serum (Gibco) or RPMI1640 Medium (Gibco) and 10% foetal calf serum (Gibco) and harvested in the logarithmic growth phase. Then the SK-UT-1B cells were placed in Cytostar® multi-well plates (Amersham) at a density of 4000 cells per well or 3000 cells per well for NCI-H460 cells and incubated overnight in an incubator. Various concentrations of the compounds (dissolved in DMSO; final concentration: 0.1%) were added to the cells. After 48 hours' incubation, ^14C-thymidine (Amersham) was added to each well and incubation was continued for a further 24 hours. The quantity of ^14C-thymidine which was incorporated into the tumour cells in the presence of the inhibitor and which represents the number of cells in the S phase was measured in a Wallace 1450 Microbeta Liquid Scintillation Counter. IC50 values for the inhibition of the proliferation (=inhibition of incorporated ^14C-thymidine) were calculated, correcting for the background radiation. All the measurements were done twice.
The following Table contains the results obtained with the in vitro Test 1 (++ denotes <0.01 μM, + denotes 0.01–1.0 μM): […]
A general note: Uptake of a labelled nucleoside into DNA is a usual measure of proliferation.
In the case of `CCS(=O)(=O)Nc1ccc2c(c1)/C(=C(/Nc1ccc(CN3CCCCC3)cc1)c1ccccc1)C(=O)N2` [Example 99, (Z)-3-{1-[4-(piperidinomethyl)-phenylamino]-1-phenyl-methylidene}-5-ethylsulphonylamino-2-indolinone], the IC50 is less than 10 nM. On the same count and under the same terms, to `CC(=O)N(C)c1ccc(N/C(=C2\C(=O)Nc3ccc(NS(=O)(=O)c4ccccc4)cc32)c2ccccc2)cc1` [Example 20, (Z)-3-{1-[4-(N-methyl-N-acetyl-amino)-phenylamino]-1-phenyl-methylidene}-5-phenylsulphonylamino-2-indolinone] belongs 10 to 1000 nM; to `O=C1Nc2ccc(N(c3cccnc3)S(=O)(=O)c3ccccc3)cc2/C1=C(/Nc1ccc(CN2CCCCC2)cc1)c1ccccc1` [Example 134, (Z)-3-{1-[4-(piperidinomethyl)-phenylamino]-1-phenyl-methylidene}-5-(pyridin-3-ylphenylsulphonylamino)-2-indolinone], less than 10 nM. Same read-out and setting: to `O=C1Nc2ccc(NS(=O)(=O)c3cccnc3)cc2/C1=C(/Nc1ccc(C(=O)N2CCCC2)cc1)c1ccccc1` [Example 88, (Z)-3-{1-[4-(pyrrolidin-1-ylcarbonyl)-phenylamino]-1-phenyl-methylidene}-5-(pyridin-3-ylsulphonylamino)-2-indolinone] belongs 10 to 1000 nM. The same measure, in the same setting: next, `O=C1Nc2ccc(NS(=O)(=O)Cc3ccccc3)cc2/C1=C(/Nc1ccc(CN2CCCC2)cc1)c1ccccc1` [Example 58, (Z)-3-{1-[4-(pyrrolidin-1-ylmethyl)-phenylamino]-1-phenyl-methylidene}-5-benzylsulphonylamino-2-indolinone]: 10 to 1000 nM; `CCC(=O)NCCN(C(=O)CC)c1ccc(N/C(=C2\C(=O)Nc3ccc(NS(=O)(=O)c4ccccc4)cc32)c2ccccc2)cc1` [Example 31, (Z)-3-{1-[4-(N-(2-propionylamino-ethyl)-N-propionyl-amino)-phenylamino]-1-phenyl-methylidene}-5-phenylsulphonylamino-2-indolinone]: less than 10 nM.

System in the next data set: not given
Assay: not given
Conditions: not given
The term melting point denotes the temperature of the solid-liquid transition. In the case of `CC(=O)N(CCN(C)C)c1ccc(N/C(=C2\C(=O)Nc3ccc(N(C)S(=O)(=O)c4ccccc4)cc32)c2ccccc2)cc1` [Example 208, (Z)-3-{1-[4-(N-(2-dimethylamino-ethyl)-N-acetyl-amino)-phenylamino)-1-phenyl-methylidene}-5-(N-methyl-N-phenylsulphonyl-amino)-2-indolinone], the melting point was determined as 217 °C. Take `O=C(Cc1ccc(N/C(=C2\C(=O)Nc3ccc(NS(=O)(=O)c4ccccc4)cc32)c2ccccc2)cc1)NCc1ccccc1` [Example 154, (Z)-3-{1-[4-(benzylaminocarbonylmethyl)-phenylamino]-1-phenyl-methylidene}-5-phenylsulphonylamino-2-indolinone]: the melting point was in the range of 219 to 220 °C. Still for that read-out and setting: next, `CN(C(=O)CN1CCCCC1)c1ccc(N/C(=C2\C(=O)Nc3ccc(N(C)S(=O)(=O)c4ccccc4)cc32)c2ccccc2)cc1` [Example 209, (Z)-3-{1-[4-(N-methyl-N-piperidinomethylcarbonyl-amino)-phenylamino)-1-phenyl-methylidene}-5-(N-methyl-N-phenylsulphonyl-amino)-2-indolinone]: 160 °C; `O=C(O)Cc1ccc(N/C(=C2\C(=O)Nc3ccc(NS(=O)(=O)c4ccccc4)cc32)c2ccccc2)cc1` [Example 153, (Z)-3-[1-(4-carboxymethyl-phenylamino)-1-phenyl-methylidene]-5-phenylsulphonylamino-2-indolinone]: 305 to 306 °C. As to `CC(=O)N(CCN)c1ccc(N/C(=C2\C(=O)Nc3ccc(NS(=O)(=O)c4ccccc4)cc32)c2ccccc2)cc1` [Example 1, (Z)-3-{1-[4-(N-acetyl-N-(2-aminoethyl)-amino)-phenylamino]-1-phenyl-methylidene}-5-phenylsulphonylamino-2-indolinone], the melting point was determined as 216 °C.
